Data on two compounds can be found in patent publication US8268849B2, “Multifunctional Antioxidants and methods of use thereof” (priority 2007, dated 2012).

The nature of data set [1]: Chow consumption, body weight and salivary gland protection after whole head irradiation. Type of data set: in vivo, Long Evans rats. To be noted: for body weight after irradiation: 15 Gy whole head irradiation; for protection of the salivary gland: after whole head irradiation. The source says:
Cataracts were induced by whole head gamma irradiation in 24 male Long Evans (150-200 g) rats. […] Because of the amount of drug required for this long-term study, the percentage of JHX-4 and JHX-8 utilized was ½ of the dose used in the diabetic study. […] Lens changes were monitored every 7 days by portable slit lamp and recorded on a scale from 0-6 with 0: Clear, 1: Posterior subcapsular haze, 2: Spokes, suture enhancement and powdery posterior subcapsular deposits, 3: Prominent posterior subcapsular punctate opacities with spokes and suture enhancement, 4: Posterior subcapsular opacity blocks appearance of retinal vessels, 5: Start cortical involvement, 6: Total lens opacity, visible with naked eye. […] Subsequently, all rats received standard rat chow with/without JHX-4 or -8.

The nature of data set [2]: Chelation study by ESI-MS, Fe^3+ solution. Type of data set: binding. To be noted: 10:1 metal:compound, 45 minutes of mixing. As for the experimental part:
(§1) The relative amount of ions bound by JHX-1-JHX-8 was determined by electrospray ionization mass spectrometry (ESI-MS) according to the method of Baron and Hering (Baron and Hering (1998) Spectrometry J. Environ. Qual., 27:844-850). In this method solutions containing Fe^2+, Fe^3+, Cu^1+, Cu^2+, Zn^2+, Ca^2+, Mg^2+ were mixed with compound in ratios of 10:1, 1:1, and 1:10. After 45 minutes of mixing, each solution was directly infused into the MS with constant ionization energy and the relative decreases of the parent peaks in these solutions were determined. […] FIG. 3 illustrates ion binding with increased Fe^+2 concentrations results in decreased compound parent peak heights by ESI-MS when compounds contain appropriate functional groups for metal ion chelation.

Data set [3] is described as follows: Drug levels in target tissues after oral administration. Type of data set: in vivo, Sprague Dawley rats. To be noted: normal young rats; for drug detected in the brain: chow containing 0.05% drug for 6 days; for Lens drug level / retinal drug level: chow containing 0.05% drug for 6 days (80±10 mg/kg/day), HPLC; for retinal drug level: posterior segment. The method, then: To determine whether JHX-4 and JHX-8 can reach the target tissues of lens, retina and brain after oral administration, two groups of 4 young (100 g) Sprague Dawley rats were administered rat chow containing 0.05% of either drug for 6 days. […] Lens and posterior segments were homogenized in glass homogenizers in ice-cold PBS, pH 7.4, after addition of an aliquot of JHX-1 as an internal standard. The homogenates were deproteinized with 48 mM NaF and centrifuged. The supernatant was extracted with acetone. The acetone extract was evaporated under vacuum and the residue was dissolved in acetonitrile. Whole brains were similarly extracted; however, brain homogenates were deproteinized with equal amounts of 0.3 N Na2SO4 and 0.3 N Ba(OH)2. Drug levels were measured by reverse-phase HPLC with a Phenomenex LUNA 5 μm C18 column and an isocratic elution of 1:1 MeOH:Water. Detection was conducted at 245 nm and compound levels were quantified using standard curves. Lens and retinal drug levels were 200±11 and 1373±38 ng/mg protein for JHX-4 and 90±5 and 1060±12 ng/mg protein for JHX-8 respectively. Only trace amounts of either compound were detected in the brain.

Data set [4] deals with SRA-1 human lens epithelial cells. The data set is described as follows: ROS staining (H2DCF-DA) in lens epithelial cells. The data set is classed as cell-based. The conditions noted are these: 24 hour incubation, H2DCF-DA stain; for ROS staining, ROS generated by Fenton reaction: 0.1 mM Fe^2+ and 0.1 mM hydrogen peroxide; for ROS staining, ROS initiated by homocysteine: 10 mM homocysteine (ER stress). As for the experimental part:
The SRA-1 human lens epithelium cell line (Ibaraki et al. (1998) Exp. Eye Res., 67:577-85) was used to evaluate the antioxidant activity of JHX-1-8. These cells were cultured in DMEM media containing 10% fetal bovine serum (FBS), glutamine, NaHCO3, penicillin, and streptomycin at 37° C. in humidified atmosphere of 5% CO2 and 95% air until subconfluent (2-4 days). The cells were passaged when 80-90% confluent by treatment with trypsin-EDTA. The cells were plated at a density of 1×10^4 cells onto 96-well plates or 1×10^6 cells onto 100-mm dishes. ROS levels/effects in cells treated with JHX-1-8 were compared to similar cells treated with the water soluble Vitamin E derivative, Trolox (antioxidant control) or no drug (control).
The compounds were initially screened for antioxidant activity in 24 hour cultured SRA-1 human lens epithelial cells. Reactive oxygen species (ROS) in these cells were generated through both the Fenton reaction in which 0.1 mM Fe^2+ and 0.1 mM hydrogen peroxide were added to the culture media, or by culturing the lens with 10 mM homocysteine which induces endoplasmic reticular (ER) stress that results in the unfolded protein response (UPR) that subsequently generates the ROS. ROS were visualized with 2′,7′-dichlorodihydrofluorescein diacetate (DCF) staining. More specifically, after 24 hours of incubation, all cells were washed 2× with PBS and then incubated at room temperature for 1 hour with 10 μM H2DCF-DA (Invitrogen) stain. Fluorescent ROS staining was analyzed by quantifying pixel intensities of images obtained by fluorescent microscopy. As illustrated below in FIGS. 4A and 4B, compounds with chelating groups only produced a dose-dependent reduction in Fenton Reaction generated ROS. […] Indeed, homocysteine activates ER stress which subsequently initiates ROS through an Unfolded Protein Response (UPR).

Data set [5] is described as follows: Chelation study by ESI-MS, Fe^2+ solution. The data set is classed as binding. To be noted: 10:1 metal:compound, 45 minutes of mixing. The method, then:
as §1

For the compound `CN(C)S(=O)(=O)N1C(=O)CN(c2ncc(O)cn2)CC1=O` [JHX-4, 1-N,N′-dimethylsulfamoyl-4-(5-hydroxy-2-pyrimidyl)piperazine-2,6-dione], in data set [1], the “body weight after irradiation” value is “reducing post-irradiation weight loss” and the “protection of the salivary gland” value is “provided systemic protection”. For the same compound, the “% Parent Peak Remaining at 10:1 Solution of Metal:Compound” value (from here on “% Parent Peak Remaining at 10:1 Solution”) in data set [2] is on record as 8.2%. In addition, in data set [3], the “drug detected in the brain” value was “trace amounts”, the Lens drug level amounted to 200±11 ng/mg protein and the retinal drug level is 1373±38 ng/mg protein. Also, in data set [4], the “ROS staining, ROS generated by Fenton reaction” value was “protected against ROS” and the “ROS staining, ROS initiated by homocysteine” value is “reduced ROS staining similar to that with Trolox”. Also, the “% Parent Peak Remaining at 10:1 Solution” value in data set [5] amounted to 6.9%.

Take `COc1nc(N2CC(=O)N(S(=O)(=O)N(C)C)C(=O)C2)nc(OC)c1O` [JHX-8, 1-N,N′-dimethylsulfamoyl-4-(4,6-dimethoxy-5-hydroxy-2-pyrimidyl)piperazine-2,6-dione]: in data set [1], the “body weight after irradiation” value was “reducing post-irradiation weight loss” and the “protection of the salivary gland” value is reported as “provided systemic protection”. Besides, in data set [2], the “% Parent Peak Remaining at 10:1 Solution” value amounted to 8.2%. Besides, in data set [3], the “drug detected in the brain” value is recorded as “trace amounts”, the Lens drug level worked out at 90±5 ng/mg protein and the retinal drug level is given as 1060±12 ng/mg protein. In data set [4], the “ROS staining, ROS generated by Fenton reaction” value was “protected against ROS” and the “ROS staining, ROS initiated by homocysteine” value is “reduced ROS staining similar to that with Trolox”. For the same compound, the “% Parent Peak Remaining at 10:1 Solution” value in data set [5] is listed as 7.5%.
